ChEMBL document CHEMBL3396954, “Synthesis and in vitro biological evaluation of dihydroartemisinyl-chalcone esters” (Eur J Med Chem, 2015)

Test system: Plasmodium falciparum
Experiment: Antimalarial activity against chloroquine-resistant Plasmodium falciparum W2 assessed as inhibition of parasite proliferation after 96 hrs by SYBR Green I-based fluorescence method
Type: functional, organism-based
Details: W2, 96 h

Compound	IC50 [µM]
COc1ccc(C(=O)/C=C/c2ccc(C(=O)OC3O[C@@H]4O[C@]5(C)CC[C@H]6[C@H](C)CC[C@@H]([C@H]3C)[C@@]46OO5)cc2)cc1OC (stereo partly specified)	0.00146
C[C@H]1[C@@H](OC(=O)c2ccc(/C=C/C(=O)c3ccc(Cl)c(Cl)c3Cl)cc2)O[C@@H]2O[C@]3(C)CC[C@H]4[C@H](C)CC[C@@H]1[C@@]24OO3	0.00584
COc1ccc(C(=O)/C=C/c2ccc(C(=O)O)cc2)cc1OC	0.0108
C[C@@H]1CC[C@H]2[C@@H](C)C(OC(=O)c3ccc(/C=C/C(=O)c4ccccc4)cc3)O[C@@H]3O[C@]4(C)CC[C@@H]1[C@]32OO4 (stereo partly specified)	0.0106

Test system: not listed separately
Experiment: Selectivity index, ratio of IC50 for chloroquine-resistant Plasmodium falciparum W2 to IC50 for human MCF7 cells
Details: not given

Compound	Ratio IC50
COc1ccc(C(=O)/C=C/c2ccc(C(=O)OC3O[C@@H]4O[C@]5(C)CC[C@H]6[C@H](C)CC[C@@H]([C@H]3C)[C@@]46OO5)cc2)cc1OC (stereo partly specified)	>2329
C[C@H]1[C@@H](OC(=O)c2ccc(/C=C/C(=O)c3ccc(Cl)c(Cl)c3Cl)cc2)O[C@@H]2O[C@]3(C)CC[C@H]4[C@H](C)CC[C@@H]1[C@@]24OO3	2549.7
COc1ccc(C(=O)/C=C/c2ccc(C(=O)O)cc2)cc1OC	0.8
C[C@@H]1CC[C@H]2[C@@H](C)C(OC(=O)c3ccc(/C=C/C(=O)c4ccccc4)cc3)O[C@@H]3O[C@]4(C)CC[C@@H]1[C@]32OO4 (stereo partly specified)	>339

Test system: not listed separately
Experiment: Selectivity index, ratio of IC50 for chloroquine-resistant Plasmodium falciparum W2 to IC50 for human TK10 cells
Set-up: species or system TK-10
Details: not given

Compound	Ratio IC50
COc1ccc(C(=O)/C=C/c2ccc(C(=O)OC3O[C@@H]4O[C@]5(C)CC[C@H]6[C@H](C)CC[C@@H]([C@H]3C)[C@@]46OO5)cc2)cc1OC (stereo partly specified)	>4105
C[C@H]1[C@@H](OC(=O)c2ccc(/C=C/C(=O)c3ccc(Cl)c(Cl)c3Cl)cc2)O[C@@H]2O[C@]3(C)CC[C@H]4[C@H](C)CC[C@@H]1[C@@]24OO3	9198.6
COc1ccc(C(=O)/C=C/c2ccc(C(=O)O)cc2)cc1OC	1.7
C[C@@H]1CC[C@H]2[C@@H](C)C(OC(=O)c3ccc(/C=C/C(=O)c4ccccc4)cc3)O[C@@H]3O[C@]4(C)CC[C@@H]1[C@]32OO4 (stereo partly specified)	>786

Test system: not listed separately
Experiment: Selectivity index, ratio of IC50 for human WI38 cells to IC50 for chloroquine-sensitive Plasmodium falciparum 3D7
Type: toxicity, cell-based, WI-38
Details: read-out: Ratio IC50

Compound	selectivity ratio
COc1ccc(C(=O)/C=C/c2ccc(C(=O)OC3O[C@@H]4O[C@]5(C)CC[C@H]6[C@H](C)CC[C@@H]([C@H]3C)[C@@]46OO5)cc2)cc1OC (stereo partly specified)	> 29800
C[C@H]1[C@@H](OC(=O)c2ccc(/C=C/C(=O)c3ccc(Cl)c(Cl)c3Cl)cc2)O[C@@H]2O[C@]3(C)CC[C@H]4[C@H](C)CC[C@@H]1[C@@]24OO3	5800
COc1ccc(C(=O)/C=C/c2ccc(C(=O)O)cc2)cc1OC	6.2
C[C@@H]1CC[C@H]2[C@@H](C)C(OC(=O)c3ccc(/C=C/C(=O)c4ccccc4)cc3)O[C@@H]3O[C@]4(C)CC[C@@H]1[C@]32OO4 (stereo partly specified)	> 10300

Test system: WI-38
Experiment: Selectivity index, ratio of IC50 for human WI38 cells to IC50 for human TK10 cells
Type: functional
Details: not given

Compound	Ratio IC50
COc1ccc(C(=O)/C=C/c2ccc(C(=O)OC3O[C@@H]4O[C@]5(C)CC[C@H]6[C@H](C)CC[C@@H]([C@H]3C)[C@@]46OO5)cc2)cc1OC (stereo partly specified)	>17
C[C@H]1[C@@H](OC(=O)c2ccc(/C=C/C(=O)c3ccc(Cl)c(Cl)c3Cl)cc2)O[C@@H]2O[C@]3(C)CC[C@H]4[C@H](C)CC[C@@H]1[C@@]24OO3	1.2
COc1ccc(C(=O)/C=C/c2ccc(C(=O)O)cc2)cc1OC	3.6
C[C@@H]1CC[C@H]2[C@@H](C)C(OC(=O)c3ccc(/C=C/C(=O)c4ccccc4)cc3)O[C@@H]3O[C@]4(C)CC[C@@H]1[C@]32OO4 (stereo partly specified)	>12

Test system: UACC-62
Experiment: Selectivity index, ratio of IC50 for human WI38 cells to IC50 for human UACC62 cells
Type: functional
Details: not given

Compound	Ratio IC50
COc1ccc(C(=O)/C=C/c2ccc(C(=O)OC3O[C@@H]4O[C@]5(C)CC[C@H]6[C@H](C)CC[C@@H]([C@H]3C)[C@@]46OO5)cc2)cc1OC (stereo partly specified)	>19
C[C@H]1[C@@H](OC(=O)c2ccc(/C=C/C(=O)c3ccc(Cl)c(Cl)c3Cl)cc2)O[C@@H]2O[C@]3(C)CC[C@H]4[C@H](C)CC[C@@H]1[C@@]24OO3	2.2
COc1ccc(C(=O)/C=C/c2ccc(C(=O)O)cc2)cc1OC	8.6
C[C@@H]1CC[C@H]2[C@@H](C)C(OC(=O)c3ccc(/C=C/C(=O)c4ccccc4)cc3)O[C@@H]3O[C@]4(C)CC[C@@H]1[C@]32OO4 (stereo partly specified)	>19

Test system: MCF7
Experiment: Selectivity index, ratio of IC50 for human WI38 cells to IC50 for human MCF7 cells
Type: functional
Details: not given

Compound	Ratio IC50
COc1ccc(C(=O)/C=C/c2ccc(C(=O)OC3O[C@@H]4O[C@]5(C)CC[C@H]6[C@H](C)CC[C@@H]([C@H]3C)[C@@]46OO5)cc2)cc1OC (stereo partly specified)	>29
C[C@H]1[C@@H](OC(=O)c2ccc(/C=C/C(=O)c3ccc(Cl)c(Cl)c3Cl)cc2)O[C@@H]2O[C@]3(C)CC[C@H]4[C@H](C)CC[C@@H]1[C@@]24OO3	4.2
COc1ccc(C(=O)/C=C/c2ccc(C(=O)O)cc2)cc1OC	7.6
C[C@@H]1CC[C@H]2[C@@H](C)C(OC(=O)c3ccc(/C=C/C(=O)c4ccccc4)cc3)O[C@@H]3O[C@]4(C)CC[C@@H]1[C@]32OO4 (stereo partly specified)	>28

Test system: not listed separately
Experiment: Anticancer activity against human UACC62 cells assessed as inhibition of cell growth after 24 hrs by SRB assay
Type: functional, cell-based
Details: UACC-62, 24 h

Compound	IC50 [µM]
COc1ccc(C(=O)/C=C/c2ccc(C(=O)OC3O[C@@H]4O[C@]5(C)CC[C@H]6[C@H](C)CC[C@@H]([C@H]3C)[C@@]46OO5)cc2)cc1OC (stereo partly specified)	5.19
C[C@H]1[C@@H](OC(=O)c2ccc(/C=C/C(=O)c3ccc(Cl)c(Cl)c3Cl)cc2)O[C@@H]2O[C@]3(C)CC[C@H]4[C@H](C)CC[C@@H]1[C@@]24OO3	28.5
COc1ccc(C(=O)/C=C/c2ccc(C(=O)O)cc2)cc1OC	7.87
C[C@@H]1CC[C@H]2[C@@H](C)C(OC(=O)c3ccc(/C=C/C(=O)c4ccccc4)cc3)O[C@@H]3O[C@]4(C)CC[C@@H]1[C@]32OO4 (stereo partly specified)	5.35

Test system: not listed separately
Experiment: Selectivity index, ratio of IC50 for chloroquine-resistant Plasmodium falciparum W2 to IC50 for human UACC62 cells
Set-up: species or system UACC-62
Details: not given

Compound	Ratio IC50
COc1ccc(C(=O)/C=C/c2ccc(C(=O)OC3O[C@@H]4O[C@]5(C)CC[C@H]6[C@H](C)CC[C@@H]([C@H]3C)[C@@]46OO5)cc2)cc1OC (stereo partly specified)	>3556
C[C@H]1[C@@H](OC(=O)c2ccc(/C=C/C(=O)c3ccc(Cl)c(Cl)c3Cl)cc2)O[C@@H]2O[C@]3(C)CC[C@H]4[C@H](C)CC[C@@H]1[C@@]24OO3	4873.3
COc1ccc(C(=O)/C=C/c2ccc(C(=O)O)cc2)cc1OC	0.7
C[C@@H]1CC[C@H]2[C@@H](C)C(OC(=O)c3ccc(/C=C/C(=O)c4ccccc4)cc3)O[C@@H]3O[C@]4(C)CC[C@@H]1[C@]32OO4 (stereo partly specified)	>505

Test system: not listed separately
Experiment: Cytotoxicity against human WI38 cells assessed as inhibition of proliferation after 24 hrs by SRB assay
Type: cell-based
Details: WI-38, 24 h

Compound	IC50 [µM]
COc1ccc(C(=O)/C=C/c2ccc(C(=O)OC3O[C@@H]4O[C@]5(C)CC[C@H]6[C@H](C)CC[C@@H]([C@H]3C)[C@@]46OO5)cc2)cc1OC (stereo partly specified)	> 100
C[C@H]1[C@@H](OC(=O)c2ccc(/C=C/C(=O)c3ccc(Cl)c(Cl)c3Cl)cc2)O[C@@H]2O[C@]3(C)CC[C@H]4[C@H](C)CC[C@@H]1[C@@]24OO3	61.9
COc1ccc(C(=O)/C=C/c2ccc(C(=O)O)cc2)cc1OC	67.4
C[C@@H]1CC[C@H]2[C@@H](C)C(OC(=O)c3ccc(/C=C/C(=O)c4ccccc4)cc3)O[C@@H]3O[C@]4(C)CC[C@@H]1[C@]32OO4 (stereo partly specified)	> 100

Test system: not listed separately
Experiment: Resistance index, ratio of IC50 for chloroquine-resistant Plasmodium falciparum W2 to IC50 for chloroquine-sensitive Plasmodium falciparum 3D7
Type: functional
Details: not given

Compound	Ratio IC50
COc1ccc(C(=O)/C=C/c2ccc(C(=O)OC3O[C@@H]4O[C@]5(C)CC[C@H]6[C@H](C)CC[C@@H]([C@H]3C)[C@@]46OO5)cc2)cc1OC (stereo partly specified)	0.4
C[C@H]1[C@@H](OC(=O)c2ccc(/C=C/C(=O)c3ccc(Cl)c(Cl)c3Cl)cc2)O[C@@H]2O[C@]3(C)CC[C@H]4[C@H](C)CC[C@@H]1[C@@]24OO3	0.5
COc1ccc(C(=O)/C=C/c2ccc(C(=O)O)cc2)cc1OC	1
C[C@@H]1CC[C@H]2[C@@H](C)C(OC(=O)c3ccc(/C=C/C(=O)c4ccccc4)cc3)O[C@@H]3O[C@]4(C)CC[C@@H]1[C@]32OO4 (stereo partly specified)	1.1

Test system: Plasmodium falciparum
Experiment: Antimalarial activity against chloroquine-sensitive Plasmodium falciparum 3D7 assessed as inhibition of parasite proliferation after 96 hrs by SYBR Green I-based fluorescence method
Type: functional, organism-based
Details: 3D7, 96 h

Compound	IC50 [µM]
COc1ccc(C(=O)/C=C/c2ccc(C(=O)OC3O[C@@H]4O[C@]5(C)CC[C@H]6[C@H](C)CC[C@@H]([C@H]3C)[C@@]46OO5)cc2)cc1OC (stereo partly specified)	0.00336
C[C@H]1[C@@H](OC(=O)c2ccc(/C=C/C(=O)c3ccc(Cl)c(Cl)c3Cl)cc2)O[C@@H]2O[C@]3(C)CC[C@H]4[C@H](C)CC[C@@H]1[C@@]24OO3	0.0107
COc1ccc(C(=O)/C=C/c2ccc(C(=O)O)cc2)cc1OC	0.0108
C[C@@H]1CC[C@H]2[C@@H](C)C(OC(=O)c3ccc(/C=C/C(=O)c4ccccc4)cc3)O[C@@H]3O[C@]4(C)CC[C@@H]1[C@]32OO4 (stereo partly specified)	0.00973

Test system: MCF7
Experiment: Anticancer activity against human MCF7 cells assessed as inhibition of cell growth after 24 hrs by SRB assay
Type: functional, cell-based
Details: MCF7, 24 h

Compound	IC50 [µM]
COc1ccc(C(=O)/C=C/c2ccc(C(=O)OC3O[C@@H]4O[C@]5(C)CC[C@H]6[C@H](C)CC[C@@H]([C@H]3C)[C@@]46OO5)cc2)cc1OC (stereo partly specified)	3.4
C[C@H]1[C@@H](OC(=O)c2ccc(/C=C/C(=O)c3ccc(Cl)c(Cl)c3Cl)cc2)O[C@@H]2O[C@]3(C)CC[C@H]4[C@H](C)CC[C@@H]1[C@@]24OO3	14.9
COc1ccc(C(=O)/C=C/c2ccc(C(=O)O)cc2)cc1OC	8.88
C[C@@H]1CC[C@H]2[C@@H](C)C(OC(=O)c3ccc(/C=C/C(=O)c4ccccc4)cc3)O[C@@H]3O[C@]4(C)CC[C@@H]1[C@]32OO4 (stereo partly specified)	3.59

Test system: TK-10
Experiment: Anticancer activity against human TK10 cells assessed as inhibition of cell growth after 24 hrs by SRB assay
Type: functional, cell-based
Details: TK-10, 24 h

Compound	IC50 [µM]
COc1ccc(C(=O)/C=C/c2ccc(C(=O)OC3O[C@@H]4O[C@]5(C)CC[C@H]6[C@H](C)CC[C@@H]([C@H]3C)[C@@]46OO5)cc2)cc1OC (stereo partly specified)	5.99
C[C@H]1[C@@H](OC(=O)c2ccc(/C=C/C(=O)c3ccc(Cl)c(Cl)c3Cl)cc2)O[C@@H]2O[C@]3(C)CC[C@H]4[C@H](C)CC[C@@H]1[C@@]24OO3	53.7
COc1ccc(C(=O)/C=C/c2ccc(C(=O)O)cc2)cc1OC	18.9
C[C@@H]1CC[C@H]2[C@@H](C)C(OC(=O)c3ccc(/C=C/C(=O)c4ccccc4)cc3)O[C@@H]3O[C@]4(C)CC[C@@H]1[C@]32OO4 (stereo partly specified)	8.32
